PubChem BioAssay (NCI)
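Five compound concentrations were applied to cells in 96-well plates for 48 hours; endpoints were derived by simple linear interpolation of the resulting dose-response curve. GI50 marks 50% less growth. TGI is the concentration that stops growth completely.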

Tests used:
Experiment in all cases: NCI anticancer screen, dose series, 48 h
HOP-62 NSCLC = system: HOP-62 NSCLC
CCRF-CEM leukemia = system: CCRF-CEM leukemia
UO-31 renal = system: UO-31 renal
OVCAR-4 ovarian = system: OVCAR-4 ovarian
UACC-257 melanoma = system: UACC-257 melanoma
BT-549 breast = system: BT-549 breast
M14 melanoma = system: M14 melanoma
HT29 colon = system: HT29 colon
LOX IMVI melanoma = system: LOX IMVI melanoma
SR leukemia = system: SR leukemia

| SMILES | GI50 (HOP-62 NSCLC) [µM] | TGI (HOP-62 NSCLC) [µM] | GI50 (CCRF-CEM leukemia) [µM] | TGI (CCRF-CEM leukemia) [µM] | GI50 (UO-31 renal) [µM] | TGI (UO-31 renal) [µM] | GI50 (OVCAR-4 ovarian) [µM] | TGI (OVCAR-4 ovarian) [µM] | GI50 (UACC-257 melanoma) [µM] | TGI (UACC-257 melanoma) [µM] | GI50 (BT-549 breast) [µM] | TGI (BT-549 breast) [µM] | GI50 (M14 melanoma) [µM] | TGI (M14 melanoma) [µM] | GI50 (HT29 colon) [µM] | TGI (HT29 colon) [µM] | GI50 (LOX IMVI melanoma) [µM] | TGI (LOX IMVI melanoma) [µM] | TGI (SR leukemia) [µM] | GI50 (SR leukemia) [µM] |
| --- | --- | --- | --- | --- | --- | --- | --- | --- | --- | --- | --- | --- | --- | --- | --- | --- | --- | --- | --- | --- |
| CCOC(=O)C1=C(C)NC(=O)NC1CN1C(=O)c2ccccc2C1=O (configuration not stated) | > 100 | > 100 | > 100 | > 100 | > 100 | > 100 | > 100 | > 100 | > 100 | > 100 | > 100 | > 100 | > 100 | > 100 | > 100 | > 100 | > 100 | > 100 |  |  |
| COc1ccc2c3c1OC1C(OC)(OC)C=C[C@@]4(Br)[C@@H](C2)N(CC2CC2)CC[C@]314 (some centres not stated) |  | > 100 |  | > 100 |  | > 100 |  | > 100 |  | > 100 |  |  |  | > 100 |  | > 100 |  | > 100 | > 100 |  |
| O=C(CCc1ccccc1)NS(=O)(=O)c1ccccc1 |  | > 100 |  | > 100 |  | > 100 |  | > 100 |  | > 100 |  |  |  | > 100 |  | > 100 |  | > 100 | > 100 |  |
| CSc1nc2nn(Cc3ccccc3)cc2c(=O)[nH]1 |  | > 100 |  | > 100 |  | > 100 |  | > 100 |  | > 100 |  |  |  | > 100 |  | > 100 |  | > 100 | > 100 |  |
| O=C(OCCCl)C1OC(n2cc(F)c(=O)[nH]c2=O)CC1O (configuration not stated) |  | > 100 |  | > 100 |  | > 100 |  | > 100 |  | > 100 |  |  |  | > 100 |  | > 100 |  | > 100 |  |  |
| CC1=NN(C(=O)Nc2ccc(Cl)cc2)C(=O)C2CCC(=O)N12 (configuration not stated) |  | > 100 |  | > 100 |  | > 100 |  | > 100 |  | > 100 |  |  |  | > 100 |  |  |  | > 100 | > 100 |  |
| O=C(/C=C/c1ccccc1O)c1ccc([N+](=O)[O-])cc1 |  | 32.4 |  | 66.1 |  | 33.2 |  | 25.1 |  | > 100 |  |  |  | 52.2 |  | 36.7 |  | 33.4 | 63.6 |  |
| c1ccncc1 |  | > 100 |  | > 100 |  | > 100 |  | > 100 |  | > 100 |  |  |  | > 100 |  | > 100 |  | > 100 | > 100 |  |
| O=C(Cc1nc2ccccc2o1)C(=O)Nc1cccc(Cl)c1 |  | > 100 |  | > 100 |  | > 100 |  | > 100 |  | > 100 |  |  |  | > 100 |  | > 100 |  |  | > 100 |  |
| COC(=O)[C@]12CC[C@@H](C)[C@H](C)[C@@H]1C1=CC[C@@H]3[C@@]4(C)C[C@@H](OC(=O)/C=C/c5ccccc5)[C@H](O)[C@@](C)(CO)[C@@H]4[C@H](O)C[C@@]3(C)[C@]1(C)CC2 | 1.91 | 5.43 | 2.88 | 10.4 | 2.56 | 11.2 | 3.23 | 13.4 |  |  | 1.76 | 3.97 | 2.65 | 8.58 | 1.8 | 3.81 | 1.69 | 3.1 |  |  |
| Cc1cc(N2CCCCC2)nc(NC2CCCC(Nc3ccnc4cc(Cl)ccc34)C2)n1 (configuration not stated) | 1.46 | 2.91 | 1.48 | 10.6 | 1.2 | 2.48 | 1.4 | 3.29 | 1.92 | 3.55 | 1.58 | 3.07 | 1.66 | 3.29 |  |  |  |  |  |  |
| CC(=O)O[C@H]1CCN2C(=O)C=CC(OCc3ccccc3)C12 (some centres not stated) |  | > 100 |  | > 100 |  | > 100 |  | > 100 |  | > 100 |  |  |  | > 100 |  | > 100 |  | > 100 |  |  |
| OCC[N+]12CCCN1CCC2 |  | > 100 |  | > 100 |  | > 100 |  | > 100 |  | > 100 |  |  |  | > 100 |  | > 100 |  | > 100 | > 100 |  |
| Cc1ccc(NC(=O)CC/C(CC(=O)C(C)(C)C)=N\NC(=O)C[n+]2ccccc2)cc1C |  | > 100 |  | > 100 |  | > 100 |  | > 100 |  | > 100 |  |  |  | > 100 |  | > 100 |  | > 100 | > 100 |  |
| CCOc1ccc(/C=C/c2cc(OC)c(OC)c(OC)c2)cc1 |  | 35.9 |  | > 66.8 |  | > 100 |  | > 100 |  | > 100 |  |  |  | 5.29 |  | > 100 |  | > 100 | > 100 |  |
| CC1(C)N=C(N)N=C(N)N1c1ccc(OCCCNC(=O)Nc2cccc(S(=O)(=O)F)c2)c(Cl)c1 | 6.04 | > 100 | 3.62 | > 100 | > 100 | > 100 | > 100 | > 100 | > 100 | > 100 |  |  | 3.26 | > 100 |  |  | 2.66 | > 100 | > 100 | 0.637 |
| CN(C)CCC(CCN(C)C)=NO |  | > 100 |  | > 100 |  | > 100 |  | > 100 |  | > 100 |  |  |  | > 100 |  | > 100 |  |  |  |  |
| C/C(=N\OCC(O)CNCCSCc1ccccc1)c1ccccc1Cl (configuration not stated) |  | 38.8 |  | 72.9 |  | 32.4 |  |  |  | 35.6 |  |  |  | 48 |  | 41.4 |  | 36.5 | 78.3 |  |
| Oc1ccc2ccccc2c1N=Nc1cc(Cl)ccc1Cl |  | 20.8 |  | > 50 |  | > 50 |  | 28.8 |  | > 50 |  | > 50 |  | > 50 |  | > 50 |  |  |  |  |
| N#CCC(=O)N/N=C1/C(=O)N(c2cc(Cl)ccc2Cl)C(=O)C(=O)C1c1nc2ccccc2s1 (configuration not stated) |  | > 100 |  | > 100 |  | > 100 |  | > 100 |  | > 100 |  |  |  | > 100 |  | > 100 |  | > 100 |  |  |
| O=C(N/C(=C\c1cccc([N+](=O)[O-])c1)c1nc2ccccc2[nH]1)c1ccccc1 |  | > 100 |  | > 100 |  | 69.4 |  | > 100 |  | > 100 |  |  |  | > 100 |  | > 100 |  |  | > 100 |  |
